{
  "source": "patent US6342213B1",
  "about": "“Methods for treating non-suturable wounds by use of cyanoacrylate adhesives” (MedLogic Global Corporation, priority 1992, dated 2002)",
  "key": {"human skin tissue": {"tested_on": "human skin tissue", "assay": "Bonding of human skin tissue, histotoxicity/cytotoxicity"}, "[1]": {"details": "used as suture supplements or internally; site of application; cited from earlier work"}},
  "data": [
    {"compound": "C=C(C#N)C(=O)OCCCC", "note": "[n-butyl cyanoacrylate, n-butyl-2-cyanoacrylate]", "values": [
      {"measurement": "Histotoxicity or cytotoxicity on bonding human skin tissue", "setting": "human skin tissue", "value": "without causing histoxicity or cytotoxicity"},
      {"measurement": "Time after application at which polymeric residue was still observed by histological examination", "setting": "[1]", "value": "≤ 12", "unit": "months"}
    ]}
  ]
}
